Converted amounts (≈) assume the structure as drawn. Blank lines part the entries; values can stand above or below the compound they belong to.
Columns and labels:
Format in all cases: functional
Citrobacter freundii = assay: In vitro antibacterial activity against gram-negative Citrobacter freundii
Shigella boydii = assay: In vitro antibacterial activity against gram-negative Shigella boydii
Streptococcus pneumoniae = assay: In vitro antibacterial activity against gram-positive Streptococcus pneumoniae
Staphylococcus aureus = assay: In vitro antibacterial activity against gram-positive Staphylococcus aureus
[1] = tested on: Staphylococcus epidermidis; assay: In vitro antibacterial activity against gram-positive Staphylococcus epidermidis
Klebsiella pneumoniae = assay: In vitro antibacterial activity against gram-negative Klebsiella pneumoniae

MIC (Citrobacter freundii): 0.195 µg/mL
Structure (SMILES): CCCNCc1c(F)cc2c(=O)c(C(=O)O)cn(C3CC3)c2c1F.Cl

Structure (SMILES): O=C(O)c1cn(C2CC2)c2c(F)c(N3CCNCC3)c(F)cc2c1=O
MIC (Citrobacter freundii): 0.049 µg/mL (≈ 0.14 µM) | MIC (Shigella boydii): 0.049 µg/mL (≈ 0.14 µM) | MIC (Streptococcus pneumoniae): 0.049 µg/mL (≈ 0.14 µM) | MIC (Staphylococcus aureus): 0.195 µg/mL (≈ 0.558 µM) | MIC [1]: 0.39 µg/mL (≈ 1.12 µM) | MIC (Klebsiella pneumoniae): 0.049 µg/mL (≈ 0.14 µM)

MIC (Citrobacter freundii): 0.098 µg/mL (≈ 0.279 µM) | MIC (Shigella boydii): 0.098 µg/mL (≈ 0.279 µM) | MIC (Streptococcus pneumoniae): 0.195 µg/mL (≈ 0.555 µM) | MIC (Staphylococcus aureus): 0.78 µg/mL (≈ 2.22 µM) | MIC [1]: 0.78 µg/mL (≈ 2.22 µM) | MIC (Klebsiella pneumoniae): 0.098 µg/mL (≈ 0.279 µM)
Structure (SMILES): CCn1cc(C(=O)O)c(=O)c2cc(F)c(N3CCNC(C)C3)c(F)c21 (centres undefined) [LOMEFLOXACIN]

MIC (Citrobacter freundii): 0.39 µg/mL
Structure (SMILES): Cl.O=C(O)c1cn(C2CC2)c2c(F)c(CNc3ccccc3)c(F)cc2c1=O

MIC (Citrobacter freundii): 0.78 µg/mL
Structure (SMILES): Cc1cc(C)nc(NCc2c(F)cc3c(=O)c(C(=O)O)cn(C4CC4)c3c2F)c1.Cl

MIC (Citrobacter freundii): 1.56 µg/mL
Structure (SMILES): Cc1ccc(NCc2c(F)cc3c(=O)c(C(=O)O)cn(C4CC4)c3c2F)cc1C.Cl

MIC (Citrobacter freundii): ≤ 0.049 µg/mL
Structure (SMILES): Cl.O=C(O)c1cn(C2CC2)c2c(F)c(CNC3CC3)c(F)cc2c1=O

MIC (Citrobacter freundii): 0.78 µg/mL
Structure (SMILES): Cl.O=C(O)c1cn(C2CC2)c2c(F)c(CNc3ccc(F)c(Cl)c3)c(F)cc2c1=O

MIC (Citrobacter freundii): ≤ 0.049 µg/mL
Structure (SMILES): CCNCc1c(F)cc2c(=O)c(C(=O)O)cn(C3CC3)c2c1F.Cl

MIC (Citrobacter freundii): 0.78 µg/mL
Structure (SMILES): Cc1ccc(NCc2c(F)cc3c(=O)c(C(=O)O)cn(C4CC4)c3c2F)cc1.Cl

MIC (Citrobacter freundii): 1.56 µg/mL
Structure (SMILES): Cl.O=C(O)c1cn(C2CC2)c2c(F)c(CNc3ccc(Cl)cc3)c(F)cc2c1=O

MIC (Citrobacter freundii): 0.39 µg/mL
Structure (SMILES): Cl.O=C(O)c1cn(C2CC2)c2c(F)c(CNc3ccc(F)cc3)c(F)cc2c1=O

MIC (Citrobacter freundii): 0.195 µg/mL
Structure (SMILES): Cl.O=C(O)c1cn(C2CC2)c2c(F)c(CN3CCNCC3)c(F)cc2c1=O

MIC (Citrobacter freundii): 1.56 µg/mL
Structure (SMILES): CN1CCN(Cc2c(F)cc3c(=O)c(C(=O)O)cn(C4CC4)c3c2F)CC1.Cl

MIC (Citrobacter freundii): 0.098 µg/mL | MIC (Shigella boydii): 0.098 µg/mL | MIC (Streptococcus pneumoniae): 0.78 µg/mL | MIC (Staphylococcus aureus): 12.5 µg/mL | MIC [1]: 12.5 µg/mL | MIC (Klebsiella pneumoniae): 0.098 µg/mL
Structure (SMILES): Cl.NCc1c(F)cc2c(=O)c(C(=O)O)cn(C3CC3)c2c1F

MIC (Citrobacter freundii): 1.56 µg/mL
Structure (SMILES): Cl.O=C(O)c1cn(C2CC2)c2c(F)c(CNc3cccc(Cl)c3)c(F)cc2c1=O

Structure (SMILES): CN[C@H](CC(C)C)C(=O)N[C@H]1C(=O)N[C@@H](CC(N)=O)C(=O)N[C@H]2C(=O)N[C@H]3C(=O)N[C@H](C(=O)N[C@H](C(=O)O)c4cc(O)cc(O)c4-c4cc3ccc4O)[C@H](O)c3ccc(c(Cl)c3)Oc3cc2cc(c3O[C@@H]2O[C@H](CO)[C@@H](O)[C@H](O)[C@H]2O[C@H]2C[C@](C)(N)[C@H](O)[C@H](C)O2)Oc2ccc(cc2Cl)[C@H]1O [VANCOMYCIN]
MIC (Citrobacter freundii): > 6.25 µg/mL

MIC (Citrobacter freundii): 0.098 µg/mL
Structure (SMILES): CCCCNCc1c(F)cc2c(=O)c(C(=O)O)cn(C3CC3)c2c1F.Cl

MIC (Citrobacter freundii): 0.098 µg/mL | MIC (Shigella boydii): 0.195 µg/mL | MIC (Streptococcus pneumoniae): 1.56 µg/mL | MIC (Staphylococcus aureus): > 6.25 µg/mL | MIC [1]: > 6.25 µg/mL | MIC (Klebsiella pneumoniae): 0.098 µg/mL
Structure (SMILES): CC(C)NCc1c(F)cc2c(=O)c(C(=O)O)cn(C3CC3)c2c1F.Cl
